In EP0103895A2, “Novel hydroxylamine derivatives, production and use thereof” (MEIJI SEIKA KABUSHIKI KAISHA, priority 1982, dated 1984):
Several values for one entry are separate records, joined by “and”; a condition that tells them apart may be missing. Equal entries are not always repeated. Where two headings read alike, the source gives them in different places.

What was measured:
[1] = test system: fowl roundworm (Ascaridia galli); assay: Anthelmintic test in chickens artificially infected with fowl roundworm, single oral dose in gelatin capsule, worm bodies counted within 48 hours (Test Examples A1, B1, C1, D1); assay type: in vivo; details: Ascaridia galli, po, 48 h, read-out: Anthelmintic effect after 48 hours
Procedure, shortened: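 Anthelmintic percentage derived from counts of worms passed within 48 h plus worms left in the intestine after killing at 48 h. Infection confirmed by fecal examination in three-bird groups; compound given orally once in gelatin capsules at 10/20 (A1, B1), 30/50 (C1) or 15/30 (D1) mg/kg.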

[2] = test system: fowl roundworm (As. galli); assay: Anthelmintic test in chickens artificially infected with fowl roundworm, compound added to feed, E.P.G. and worm count up to 21st day (Test Examples A2, B2, C2, D2); assay type: in vivo, Ascaridia galli
[3] = test system: swine Oesophagostomum (Oesophagostomum dentatum); assay: Test of anthelmintic effect against swine Oesophagostomum in naturally infected pigs, E.P.G. on 7th day (Test Examples A8, B8, C8, D8); assay type: in vivo; details: pigs; for Change of E.P.G. Before administration / Change of E.P.G. 7th day: 20 mg/Kg orally once, one value per pig; for Change of E.P.G. Before administration: baseline, 20 mg/kg; for anthelmintic effect: one administration of 20 mg/Kg
Experimental: Six pigs infected with swine Oesophagostomum (naturally infected pigs) were employed by grouping them into groups each of two pigs.
As a control, only gelatin capsules were administered orally to the two pigs.
Before administration and on the 7th day after administration, fecal matter testing was conducted to calculate the E.P.G., and the anthelmintic effect was judged by the changing of the E.P.G. to negative.

[4] = test system: Diphyllobothrium erinacei; assay: Test of anthelmintic effect against Diphyllobothrium erinacei (tapeworm) in experimentally infected cats (Test Examples A5, B5, C5, D5); details: for anthelmintic effect: 5 continuous administrations of 50 mg/Kg
[5] = test system: canine filaria; Dirofilaria immitis; assay: Test of anthelmintic effect against canine filaria in naturally infected dogs, subcutaneous injection, microfilaria in blood and adult filaria at autopsy (Test Examples A10, B10, C10, D10); assay type: in vivo; details: dogs
Experimental: Eight dogs infected with canine filaria; Diro- filaria immitis (naturally infected dogs) were employed in groups each of two dogs.
The compounds provided for tests were Compound Nos. Al, A3 and A12. 20 mg of each was administered by subcutaneous injection per Kg of body weight to each of the two dogs as a suspension in 1% "Tween 80" solution once per day for three days. As control, 3 ml of the 1% "Tween 80" solution was subcutaneously injected into two dogs once per day for three days.
Before administration and on the 10th day after administration, 20 µl of earlobe blood of each dog was sampled and examined to determine the change in microfilaria (mf) according to the concentrated smear color method, and judgement on the effect on microfilaria (mf) was made. Judgement relating to adult filaria was made on the 10th day after the last administration by killing the dogs and carrying out autopsis.
30 mg of each compound was administered by subcutaneous injection per Kg of body weight to each of the two dogs as a suspension in 1% "Tween 80" solution once per day for three days. As control, 3 ml of the 1% "Tween 80" solution was subcutaneously injected into two dogs once per day for three days.
30 mg of each compound was administered by subcutaneous injection per Kg of body weight to each of two dogs as a suspension in 1% "Tween 80" solution once per day for three days. As control, 3 ml of the 1% "Tween 80" solution was subcutaneously injected to two dogs once per day for three days.
20 mg of each compound was administered by subcutaneous injection per kg of body weight once per day for three days to each of two dogs. These compounds were administered as a suspension in 1% "Tween 80" in the case of Compound No.Dl3 and as solutions dissolved in distilled water for injection in the case of Compounds Nos. D10 and D16, respectively. As control, 3 ml of the 1% "Tween 80" solution was subcutaneously injected into two dogs once per day for three days.

[6] = test system: Liver fluke; Fasciola hepatica (F. hepatica); assay: Test of anthelmintic effect against rat infected experimentally with liver fluke (Test Examples A11, B11, C11, D11); assay type: in vivo; parameters: key to Presence or absence of fluke egg in fecal matter On 21st day after the last administration: +: indicates detection of fluke egg; -: indicates no detection; details: rats, 50 mg/Kg x 5 orally, one value per rat
Excerpt: Twenty-eight (28) rats were employed in fourteen groups each of two rats, each rat being infected with 5 metacercariae of Liver fluke; Fasciola he^patica (F.. hepatica) and confirmed to have worm eggs on the 75th day after infection according to fecal matter testing.
Judgement of the effect was made by the presence or absence of the worm gees in the fecal matter on the 21st day after the last administration and by examination according to autopsis as to whether the worm bodies were dead or alive in the liver.
The same as that in Test Example All, but eight (8) rats were employed by grouping them into groups each of two rats, each rat being infected with 5 metacercariae of liver fluke and confirmed to have fluke eggs on the 75th day after infection according to fecal matter testing.
The compounds provided for the tests were Compound Nos. Bl, B8 and B19.
The same as that in Test Example All, but six (6) rats were employed by grouping them into groups each of two rats, each rat being infected with 5 metacercariae of Fasciola hepatica and confirmed to have worm eggs on the 75th day after infection according to fecal matter testing.
The compounds provided for the tests were Compound Nos. C2 and C6.
The same as that in Test Example All, but the compounds provided for tests were Compound Nos. D14, D15 and D16.

[7] = Ascaridia galli, po, 504 h, chickens, 50 ppm added to feed, worm count on 21st day, one value per chicken, read-out: Anthelmintic effect
[8] = 20 mg/Kg x 3 subcutaneously, autopsy on 10th day after the last administration, one value per dog, 20 mg/kg

Question: `C=CCN(OCCCCC)C(C)=O` [Compound B20] was tested. Which inhibition in vivo at 30 mg/kg ([1]; chickens, 30 mg/Kg orally in gelatin capsule, one value per chicken (No.1-3)) did it give?
Answer: 100%

Question: And the inhibition in vivo at 50 mg/kg ([1]; chickens, 50 mg/Kg orally in gelatin capsule, one value per chicken (No.1-3))?
Answer: 100%

Question: And the inhibition in vivo at 20 ppm ([2]; Ascaridia galli, po, 504 h, chickens, 20 ppm added to feed, worm count on 21st day, one value per chicken, read-out: Anthelmintic effect)?
Answer: 100%

Question: What about the inhibition in vivo at 50 ppm [2, 7] of the same compound?
Answer: 100%

Question: And the “Change of E.P.G. Before administration” value [3]?
Answer: 1,000 E.P.G. and 1,600 E.P.G.

Question: What about the “Change of E.P.G. 7th day” value [3] of the same compound?
Answer: 0 E.P.G.

Question: What about the “anthelmintic effect” value [3] of the same compound?
Answer: marked anthelmintic effect

Question: Which inhibition in vivo at 30 mg/kg ([1]; chicken, 30 mg/Kg oral in gelatin capsule, chickens No.1-3) does the source give for `C=CCON(CC=C)C(=O)c1ccc(F)cc1` [Compound C7] here?
Answer: 100%

Question: And the inhibition in vivo at 50 mg/kg ([1]; chicken, 50 mg/Kg oral in gelatin capsule, chickens No.1-3)?
Answer: 100%

Question: And the inhibition in vivo at 25 ppm ([2]; Ascaridia galli, feed or water, 504 h, chicken, 25 ppm in feed, read-out: Anthelmintic effect)?
Answer: 100%

Question: And the inhibition in vivo at 50 ppm ([2]; Ascaridia galli, feed or water, 504 h, chicken, 50 ppm in feed, read-out: Anthelmintic effect)?
Answer: 100%

Question: What about the “Change of E.P.G. 21st day” value ([2]; chicken, 25 ppm in feed) of the same compound?
Answer: 0

Question: And the “Change of E.P.G. 21st day” value ([2]; chicken, 50 ppm in feed)?
Answer: 0

Question: And the “Number of worm bodies remaining in enteron” value ([4]; cat, 50 mg/Kg x 5, oral in gelatin capsule)?
Answer: 0

Question: What about the “Worm egg detection on 10th day after administration” value ([4]; cat, 50 mg/Kg x 5, oral in gelatin capsule, once per day for 5 days) of the same compound?
Answer: -

Question: What about the “anthelmintic effect” value ([4]; cats) of the same compound?
Answer: marked anthelmintic effects

Question: For `C#CCN(OCC=C)C(=O)c1ccc(F)cc1` [Compound A12, N-propargyl-N-(p-fluorobenzoyl)-O-allylhydroxylamine], which inhibition in vivo at 10 ppm ([2]; Ascaridia galli, po, 504 h, chickens, 10 ppm added to feed, worm count on 21st day, one value per chicken, read-out: Anthelmintic effect) is on record?
Answer: 80 to 90%

Question: What about the inhibition in vivo at 50 ppm [2, 7] of the same compound?
Answer: 100%

Question: What about the “Change of E.P.G. Before administration” value [3] of the same compound?
Answer: 2,100 E.P.G. and 1,500 E.P.G.

Question: What about the “Change of E.P.G. 7th day” value [3] of the same compound?
Answer: 0 E.P.G.

Question: What about the “anthelmintic effect” value [3] of the same compound?
Answer: marked anthelmintic effect

Question: And the inhibition in vivo at 20 mg/kg ([5]; Dirofilaria immitis, sc, 240 h, administration of 20 mg/Kg repeated three times, given as about 50% or more, read-out: anthelmintic effect against adult filaria)?
Answer: ≥ 50%

Question: And the “Effect on adult filaria: Number of worms killed/Total parasites” value [5, 8]?
Answer: 13/21 and 15/26

Question: And the “Effect on adult filaria: Percent of worms killed” value [5, 8]?
Answer: 62% and 58%

Question: What about the “Number of microfilaria/20 µl On 10th day after the last administration” value ([5]; 20 mg/Kg x 3 subcutaneously, earlobe blood, one value per dog) of the same compound?
Answer: 0 /20 µl

Question: And the “anthelmintic effect against microfilaria (mf)” value ([5]; administration of 20 mg/Kg repeated three times)?
Answer: marked anthelmintic effect

Question: What about the “Condition of fluke body” value ([6]; autopsy, liver, "Denatured" = fluke body is alive but a part of fluke body has changed) of the same compound?
Answer: dead

Question: And the “Presence or absence of fluke egg in fecal matter On 21st day after the last administration” value [6]?
Answer: -

Question: What about the “Number of worm bodies remaining in enteron” value ([4]; cats infected with 5 plerocercoids, 50 mg/Kg x 5 times orally, autopsy ten days after administration, one value per cat) of the same compound?
Answer: 0

Question: And the “Worm egg detection on 10th day after administration” value ([4]; cats, 50 mg/Kg x 5 times orally, one value per cat (Table A7))?
Answer: -

Question: And the “anthelmintic effect” value ([4]; cats)?
Answer: marked anthelmintic effects
